# Results: BindingDB's records for doi:10.1002/cbic.201402650 (Goethe Universität Frankfurt, 2015)
# Molecular target: T1, Juvenile hormone epoxide hydrolase (Manduca sexta, UniProt Q25489)
# T1 sequence (Q25489 whole entry): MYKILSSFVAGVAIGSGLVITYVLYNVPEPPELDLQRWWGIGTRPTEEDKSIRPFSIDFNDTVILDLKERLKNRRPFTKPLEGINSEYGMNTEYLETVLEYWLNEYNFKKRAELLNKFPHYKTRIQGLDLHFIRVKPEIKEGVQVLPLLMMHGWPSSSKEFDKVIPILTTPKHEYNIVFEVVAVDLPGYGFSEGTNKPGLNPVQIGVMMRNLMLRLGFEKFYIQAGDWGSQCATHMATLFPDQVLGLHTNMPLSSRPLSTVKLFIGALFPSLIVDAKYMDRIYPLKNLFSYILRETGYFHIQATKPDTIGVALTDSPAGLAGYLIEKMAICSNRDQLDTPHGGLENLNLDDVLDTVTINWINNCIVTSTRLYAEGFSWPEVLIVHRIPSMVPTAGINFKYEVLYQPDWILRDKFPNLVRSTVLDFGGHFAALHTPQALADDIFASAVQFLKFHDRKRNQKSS
# Assay: Quantitative Reverse Transcriptase Assay
# From the text: We used quantitative reverse-transcriptase PCR to measure the RNA levels of certain AMP genes (lysozyme, gallerimycin, moricin and cecropin) in caterpillars of M. sexta and the greater waxmoth G. mellonella challenged with Serratia entomophila or Salmonella enterica, respectively, following injection of different urea lipid compounds.
row,SMILES,IC50 [µM]
1,CC(C)CCCCCCCCNC(N)=O [N-(9-Methyldecyl) urea (2)],> 100
2,CC(C)CCCCCCCCCCNC(N)=O [N-(11-Methyldodecyl) urea (5)],> 100
3,CCCCCCCCCCCCNC(N)=O [N-Dodecyl urea (6)],> 100
4,CNC(=O)NCCCCCCCCC(C)C [N-Methyl-N -(9-methyldecyl) urea (1)],6.5
5,CNC(=O)NCCCCCCCCCCC(C)C [N-Methyl-N -(11-methyldodecyl) urea (3)],30
6,CCCCCCCCCCCCNC(=O)NC [N-Methyl-N -dodecyl urea (4)],10.7
7,CCCCCCCCCNC(=O)NC [N-Methyl-N -nonyl urea (11)],> 100
8,CCCCCCCCCCCCCNC(=O)NC [N-Methyl-N -tridecyl urea (9)],10
9,CCCCCCCCCCCCCNC(N)=O [N-Tridecyl urea (10)],> 100
10,CCCCCCCCCCCNC(=O)NC [N-methyl-N -undecyl urea (7)],4.3
11,CCCCCCCCCNC(N)=O [N-nonyl urea (12)],> 100
12,"CCCCCCCCCCCCNC(=O)NCC(C)C [US8815951, 478]",2.3
